Like-named read-outs stand apart in the source and are kept apart here.
Columns and labels:
[1] = system: Opioid Growth Factor Receptor (OGFr); assay: Induction of OGFr mRNA in human PBMCs (GeneChip microarray); assay type: cell-based
Experimental: (§1) Opioid receptor inducing compounds (ORICs) were dissolved in dimethyl sulfoxide (DMSO, Sigma Chemical Company) at 5 mM concentration. PBMCs were incubated for one hour in X-VIVO 20 medium (Cambrex Bio Science, Walkersville, Md.) at 37° C. in a 5% CO2 incubator prior to incubation with ORIC prepared in DMSO or with DMSO alone (as a control). The amount of DMSO was kept below 0.1% of the total incubation volume.
(§2) PBMCs were incubated for 15, 30, 60, 120 minutes with ORIC 1. […] DMSO-treated control samples were incubated for 1 hour, 2 hours, 5 hours, 9 hours, and 16 hours.
(§3) At the end of the specified incubation time, cells were lysed and total RNA extracted using the Qiagen RNeasy MidiKit (Qiagen, Inc., Valencia, Calif.). RNA was quantified using absorbance at 260. Quality of RNA was determined from the ratio of absorbance measured at OD260 and OD280 and from the ratio of 18S and 28S bands in RNA 6000 Nano Chip gels run on the Agilent 2100 Bioanalyzer (Agilent Technologies, Inc., Palo Alto, Calif.).
RNA was reverse transcribed to cDNA using a Superscript cDNA synthesis kit (Invitrogen Corporation, Carlsbad, Calif.) using an HPLC-purified T7-(dT)24 primer (Genset SA, Paris, France). Labeled cRNA was prepared from double-stranded cDNA by in vitro transcription using an Enzo BioArray High Yield RNA Transcript Labeling Kit in the presence of biotin-11-CTP and biotin-16-UTP (Enzo Diagnostics, Inc., Farmingdale, N.Y.), and purified using an RNeasy MiniKit (Qiagen, Inc.). 10 or 15 μg of biotinylated cRNA were fragmented and hybridized to HG-U95A or U133A GeneChip® arrays (Affymetrix, Santa Clara, Calif.) containing probe sets representing 12,000 genes (HG-U95A) or 22,000 genes (U133A). Chips were hybridized, washed, and stained according to the Affymetrix protocols.
(§4) Images were scanned using the Agilent Gene Array Scanner (Agilent Technologies, Inc., Palo Alto, Calif.), and processed using Affymetrix Microarray Suite (MS 4.0 or MS 5.0) software. The total fluorescence intensity of each image was scaled to 500 to enable comparison of different images. The image at each time point was analyzed relative to the appropriate control in order to calculate changes in expression for each gene. Changes in gene expression were deemed significant if the p value for detection and change in expression were <0.05.

μ-opioid receptor = assay: Induction of μ-opioid receptor mRNA in human PBMCs (GeneChip microarray); assay type: cell-based
Experimental: as §1, §2, §3
RNA was reverse transcribed to cDNA using a Superscript cDNA synthesis kit (Invitrogen Corporation, Carlsbad, Calif.) using an HPLC-purified T7-(dT)24 primer (Genset SA, Paris, France). Labeled cRNA was prepared from double-stranded cDNA by in vitro transcription using an Enzo BioArray High Yield RNA Transcript Labeling Kit in the presence of biotin-11-CTP and biotin-16-UTP (Enzo Diagnostics, Inc., Farmingdale, N.Y.), and purified using an RNeasy MiniKit (Qiagen, Inc.). […]
as §4, with “Changes in gene expression were deemed significant if the p value for detection and change in expression were <0.05.” left out

[2] = system: melanoma cell line B16-F10; assay: B16-F10 melanoma lung tumor model in C57/BL6 mice; assay type: in vivo; details: B16-F10 i.v.
Experimental: C57/BL6 mice are injected on Day 0 intravenously with melanoma cell line B16-F10 (5×10^5). On day 5 and lasting through day 19, mice are injected intraperitoneally every other day with either (a) PBS (control), (b) 10 mg/kg of ORIC2, (c) 10 mg/kg [Met^5]-enkephalin, or (d) both.
On Day 20, half the mice are sacrificed and the lungs are removed and weighed. Percent inhibition of lung tumor growth is determined according to the formula:
Placebo weight−Treatment weight×100 Placebo weight

lung cancer = assay: Human subjects with lung cancer, tumor size by CT scan and survival; assay type: in vivo
Experimental: Human subjects with lung cancer are injected intravenously with a placebo (control), ORIC5 (10 mg/kg), or both ORIC5 (10 mg/kg) and OGF (1 mg/kg) three times a week for eight weeks. Tumor size is measured by CT scan.

[3] = human PBMCs, 1 μM ORIC 2, 5 μM ORIC 3, 0.1 μM ORIC 4, FIG. 3
[4] = human PBMCs, 5 μM ORIC 1 (FIG. 1), 1 μM ORIC 2, 5 μM ORIC 3, 0.1 μM ORIC 4, (FIG. 2)

| Structure (SMILES) | induction of OGFr (mRNA) [1] | induction of the μ-opioid receptor (mRNA) (μ-opioid receptor; [3]) | induction of OGFr (mRNA) [1, 4] | further results |
| --- | --- | --- | --- | --- |
| CC(C)Cn1cnc2c(N)nc3ccccc3c21 [ORIC1, 1-(2-methylpropyl)-1H-imidazo[4,5-c]quinolin-4-amine] | induction |  |  |  |
| CCOCc1nc2c(N)nc3c(c2n1CC(C)(C)O)CCCC3 [ORIC2, 4-amino-2-(ethoxymethyl)-α,α-dimethyl-6,7,8,9-tetrahydro-1H-imidazo[4,5-c]quinoline-1-ethanol] |  | induction | induction | inhibition of tumor growth in the lung ([2]; 10 mg/kg i.p. every other day, day 5 to 19, lungs weighed Day 20, vs placebo): increased inhibition of tumor growth in the lung; survival ([2]; monitored through Day 75, vs placebo): enhanced survival |
| CCCCc1nc2c(N)nc3ccccc3c2n1CCCCNS(C)(=O)=O [ORIC4, N-[4-(4-amino-2-butyl-1H-imidazo[4,5-c]quinolin-1-yl)butyl]methanesulfonamide] |  | induction | induction |  |
| Cc1nc2c(N)nc3c(c2n1CCCCNC(=O)N1CCOCC1)CCCC3 [ORIC5, N-[4-(4-amino-2-methyl-6,7,8,9,-tetrahydro-1H-imidazo[4,5-c]quinolin-1-yl)butyl]morpholine-4-carboxamide] | induction |  |  | induction of the μ-opioid receptor (mRNA) (μ-opioid receptor): induction; tumor size by CT scan (lung cancer; i.v. three times a week for eight weeks, at eight weeks vs prior to treatment): measurably smaller; five-year survival rate (lung cancer; vs control group): greater |

Source: patent publication US20040214851A1, “Compositions and methods for induction of opioid receptors” (3M Innovative Properties Company, priority 2003, published 2004)
